Laboratory results: patent US8987193B2, “Nisin derivatives and the use thereof” (University College Cork—National University of Ireland, Cork, priority 2008, dated 2015)
Entries after “also recorded” stand apart in the source; their conditions may differ.

Assays:
[1] = test system: S. aureus CBC4; test: Deferred antagonism assay; assay type: cell-based; set-up: key: + = Enhanced bioactivity relative to control; − = Bioactivity equal to or less than control; NA = no activity evident; settings: XX and XXX hinge mutant producers
Method: (§1) Deferred antagonism assays were performed by replicating strains on GM17 or GM17 x-gal agar plates and allowing them to grow overnight before overlaying with either GM17/BHI/TS/MH agar (0.75% w/v agar) seeded with the appropriate indicator strain. Zone size was calculated as the diameter of the zone of clearing minus the diameter of bacterial growth (5 mm) For higher throughput screening of N20PXX, XM21VX, XXK22T and XXX banks deferred antagonism assays were performed by replicating strains using a 96 pin replicator (Boekel) or spotting 5 μl of a fresh overnight culture on GM17 agar plates and allowing them to grow overnight. […] Additional sets of indicators were employed to further assess/reassess the bioactivity of a number of strains. […] For well-diffusion assays molten agar was cooled to 48° C. and seeded with the appropriate indicator strain. The inoculated medium was rapidly transferred into sterile Petri plates in 50 ml volumes, allowed to solidify and dried. Wells (4.6 mm in diameter) were then made in the seeded plates. Purified nisin and mutant nisins were resuspended in 0.005% acetic acid, serially diluted, 50 μl volumes were dispensed into the aforementioned wells and the plates incubated at 37° C. overnight. Bioactivity was expressed as arbitrary units/ml (AU/ml) and calculated as the reciprocal of the highest dilution that gave a definite zone multiplied by the conversion factor (i.e. 20 when 50 μl was used) (Ryan et al., 1996).
(§2) As a consequence of the enhanced activities of K22T and K22S, a more in-depth investigation of this region was carried out. Saturation mutagenesis was undertaken to create a bank of nisin A hinge derivatives containing the vast majority of possible amino acid substitutions for each position. Although pPTPL was used successfully for random mutagenesis, its relatively large size of approx 10.5 kb was considered unsuitable for the complete plasmid PCR amplification approach utilized for saturation mutagenesis. A smaller (approx 6 kb) E. coli-L. lactis shuttle vector pCI372 was considered to be potentially more useful. Its suitability with respect to the in trans expression of nisA was confirmed by the ability of pDFO5 to restore the nisin positive phenotype. Saturation mutagenesis was performed on each codon using pDF05 and oligonucleotides (Table 5) that replace the specific codon with a NNK triplet, potentially encoding all 20 standard amino acids. Following complete plasmid amplification and introduction into the intermediate Top10 host, sequence analysis of a pooled bank of pDF05 derivatives confirmed randomization. Introduction of these variants into L. lactis NZ9800 allowed the expression of mutant nisin A peptides for further analysis. […] 46 residue conversions were isolated. All strains, regardless of bioactivity, were assessed with a view to comprehensively assessing the consequences of each individual hinge alteration.

[2] = test system: L. lactis CBC7; test: Deferred antagonism assay; assay type: cell-based; set-up: key: + = Enhanced bioactivity relative to control; − = Bioactivity equal to or less than control; NA = no activity evident; settings: XX and XXX hinge mutant producers
Method: as §1, §2

[3] = test system: L. lactis CBC8; test: Deferred antagonism assay; assay type: cell-based; set-up: key: + = Enhanced bioactivity relative to control; − = Bioactivity equal to or less than control; NA = no activity evident; settings: XX and XXX hinge mutant producers
Method: as §1, §2

[4] = test system: indicator strains; test: Deferred antagonism assays, various indicator strains (summary); assay type: cell-based; settings: for Target strain against which the hinge mutant was selected for enhanced bioactivity: XX and XXX banks, L. lactis HP*: enhanced or equal; for Target strain against which the hinge mutant was selected for enhanced bioactivity / Strain(s) against which the derivative (producing strain) displays enhanced bioactivity: relative to nisin A-producing control; for number of targets with enhanced activity: of the 8 additional targets tested; for Strain(s) against which the derivative (producing strain) displays enhanced bioactivity: value = strains listed
Method: as §1

[5] = test system: L. monocytogenes CBC2; test: Deferred antagonism assay; assay type: cell-based, Listeria monocytogenes; set-up: key: + = Enhanced bioactivity relative to control; − = Bioactivity equal to or less than control; NA = no activity evident; settings: L. mono CBC2; XX and XXX hinge mutant producers
Method: as §1, §2

[6] = test system: L. monocytogenes CBC1; test: Deferred antagonism assay; assay type: cell-based, Listeria monocytogenes; set-up: key: + = Enhanced bioactivity relative to control; − = Bioactivity equal to or less than control; NA = no activity evident; settings: L. mono CBC1; XX and XXX hinge mutant producers
Method: as §1, §2

[7] = test system: L. monocytogenes CBC3; test: Deferred antagonism assay; assay type: cell-based, Listeria monocytogenes; set-up: key: + = Enhanced bioactivity relative to control; − = Bioactivity equal to or less than control; NA = no activity evident; settings: L. mono CBC3; XX and XXX hinge mutant producers
Method: as §1, §2

[8] = test system: L. plantarum CBC6; test: Deferred antagonism assay; assay type: cell-based, Lactobacillus plantarum; set-up: key: + = Enhanced bioactivity relative to control; − = Bioactivity equal to or less than control; NA = no activity evident; settings: XX and XXX hinge mutant producers
Method: as §1, §2

Substance | bioactivity relative to a nisin A-producing control [1] | bioactivity relative to a nisin A-producing control [2] | bioactivity relative to a nisin A-producing control [3] | Target strain against which the hinge mutant was selected for enhanced bioactivity [4] | number of targets with enhanced activity [4] | Strain(s) against which the derivative (producing strain) displays enhanced bioactivity [4] | bioactivity relative to a nisin A-producing control [5] | bioactivity relative to a nisin A-producing control [6] | bioactivity relative to a nisin A-producing control [7] | bioactivity relative to a nisin A-producing control [8]
NisinA PMC | + | + | − | B. cereus UCC1 | 3 | L. monocytogenes CBC3, S. aureus CBC4 and L. lactis CBC7; also recorded: L. mono CBC3, S. aureus CBC4, L. lactis CBC7 | − | − | + | −
NisinA PML | + | + | − | Staph. aureus RF122 | 4 | S. aureus RF122, L. monocytogenes CBC2 , CBC3, and CBC4 and L. lactis CBC7 and S. aureus RF122, L. mono CBC2, CBC3, CBC4, L. lactis and CBC7 | + | − | + | −
NisinA PMM | − | − | − | Staph. aureus RF122 |  | B. cereus UCC1; also recorded: B. cereus UCC | − | − | − | −
NisinA PMQ | + | + | + | Strep. agalactiae ATCC 13813/B. cereus UCC1 | 4 | S. agalactiae ATCC13813, B. cereus UCC1, L. monocytogenes CBC3, S. aureus CBC4 , and L. lactis CBC7 , CBC8; also recorded: S. agalactiae ATCC13813, B. cereus UCC1, L. mono CBC3, | − | − | + | −
NisinA PMT | − | − | − | Staph. aureus RF122 |  | S. aureus RF122 | − | − | − | −
